Reference: patent US20170050957A1, “4-AMINO-6-(HETEROCYCLIC)PICOLINATES AND 6-AMINO-2-(HETEROCYCLIC)PYRIMIDINE-4-CARBOXYLATES AND THEIR USE AS HERBICIDES” (Dow AgroSciences LLC, priority 2013, published 2017)
Like-named read-outs stand apart in the source and are kept apart here.

How the values were obtained:
[1] = tested on: Key Broadleaf Weed and Crop Species; experiment: Post-emergent Test II herbicidal activity (Table 15); format: in vivo; conditions: post-emergence, 336 h, 14 d; for pest or weed control at 35 g/ha: 35 g ai/ha; for pest or weed control at 70 g/ha: 70 g ai/ha; for pest or weed control at 140 g/ha: 140 g ai/ha
Outline: (§1)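 Greenhouse-grown seedlings at first/second true leaf receive a track spray at 187 L/ha, using a highest rate plus two-fold serial dilutions down to 1/16×. Watering is by subirrigation to avoid wash-off. Percent injury (0-100) is judged by eye at 14 d against untreated plants.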

[2] = tested on: Key Grass and Sedge Weeds as well as Grass Crops; experiment: Post-emergent Test II herbicidal activity (Table 16); format: in vivo; conditions: post-emergence, 336 h, 14 d; for pest or weed control at 35 g/ha: 35 g ai/ha; for pest or weed control at 70 g/ha: 70 g ai/ha; for pest or weed control at 140 g/ha: 140 g ai/ha
Outline: as §1

[3] = Abutilon theophrasti, velvetleaf (Abutilon theophrasti), read-out: Visual Growth Reduction (%) 14 Days After Application, ABUTH
[4] = Amaranthus retroflexus, redroot pigweed (Amaranthus retroflexus), read-out: Visual Growth Reduction (%) 14 Days After Application, AMARE
[5] = Brassica napus, oilseed rape, canola (Brassica napus), read-out: Visual Growth Reduction (%) 14 Days After Application, BRSNN
[6] = Chenopodium album, lambsquarters (Chenopodium album), read-out: Visual Growth Reduction (%) 14 Days After Application, CHEAL
[7] = Euphorbia heterophylla, wild poinsettia (Euphorbia heterophylla), read-out: Visual Growth Reduction (%) 14 Days After Application, EPHHL
[8] = Helianthus annuus, sunflower (Helianthus annuus), read-out: Visual Growth Reduction (%) 14 Days After Application, HELAN
[9] = Cyperus esculentus, yellow nutsedge (Cyperus esculentus), read-out: Visual Growth Reduction (%) 14 Days After Application, CYPES
[10] = Echinochloa crus-galli, barnyardgrass (Echinochloa crus-galli), read-out: Visual Growth Reduction (%) 14 Days After Application, ECHCG
[11] = Oryza sativa, rice (Oryza sativa), read-out: Visual Growth Reduction (%) 14 Days After Application, ORYSA
[12] = Setaria faberi, giant foxtail (Setaria faberi), read-out: Visual Growth Reduction (%) 14 Days After Application, SETFA
[13] = Triticum aestivum, wheat, spring (Triticum aestivum), read-out: Visual Growth Reduction (%) 14 Days After Application, TRZAS
[14] = Zea mays, maize, corn (Zea mays), read-out: Visual Growth Reduction (%) 14 Days After Application, ZEAMX

Compound | pest or weed control at 35 g/ha [1, 3] [%] | pest or weed control at 70 g/ha [1, 3] [%] | pest or weed control at 140 g/ha [1, 3] [%] | pest or weed control at 35 g/ha [1, 4] [%] | pest or weed control at 70 g/ha [1, 4] [%] | pest or weed control at 140 g/ha [1, 4] [%] | pest or weed control at 35 g/ha [1, 5] [%] | pest or weed control at 70 g/ha [1, 5] [%] | pest or weed control at 140 g/ha [1, 5] [%] | pest or weed control at 35 g/ha [1, 6] [%] | pest or weed control at 70 g/ha [1, 6] [%] | pest or weed control at 140 g/ha [1, 6] [%] | pest or weed control at 35 g/ha [1, 7] [%] | pest or weed control at 70 g/ha [1, 7] [%] | pest or weed control at 140 g/ha [1, 7] [%] | pest or weed control at 35 g/ha [1, 8] [%] | pest or weed control at 70 g/ha [1, 8] [%] | pest or weed control at 140 g/ha [1, 8] [%] | pest or weed control at 35 g/ha [2, 9] [%] | pest or weed control at 70 g/ha [2, 9] [%] | other results
Nc1nc(-c2ccc(Cl)c3occc23)nc(C(=O)O)c1Cl [Compound 2.23] | 0 to 29 | 0 to 29 | 0 to 29 | 95 to 100 | 95 to 100 | 95 to 100 | 0 to 29 | 0 to 29 | 0 to 29 | 95 to 100 | 95 to 100 | 95 to 100 | 0 to 29 | 0 to 29 | 0 to 29 | 85 to 94 | 95 to 100 | 95 to 100 | 0 to 29 | 0 to 29 | pest or weed control at 140 g/ha [2, 9]: 0 to 29%; pest or weed control at 35 g/ha [2, 10]: 0 to 29%; pest or weed control at 70 g/ha [2, 10]: 0 to 29%; pest or weed control at 140 g/ha [2, 10]: 0 to 29%; pest or weed control at 35 g/ha [2, 11]: 0 to 29%; pest or weed control at 70 g/ha [2, 11]: 0 to 29%; pest or weed control at 140 g/ha [2, 11]: 0 to 29%; pest or weed control at 35 g/ha [2, 12]: 0 to 29%; pest or weed control at 70 g/ha [2, 12]: 0 to 29%; pest or weed control at 140 g/ha [2, 12]: 0 to 29%; pest or weed control at 35 g/ha [2, 13]: 0 to 29%; pest or weed control at 70 g/ha [2, 13]: 0 to 29%; pest or weed control at 140 g/ha [2, 13]: 0 to 29%; pest or weed control at 35 g/ha [2, 14]: 0 to 29%; pest or weed control at 70 g/ha [2, 14]: 0 to 29%; pest or weed control at 140 g/ha [2, 14]: 0 to 29%; melting point: 173 to 174.5 °C
Nc1c(F)c(-c2ccc3[nH]ccc3c2)nc(C(=O)O)c1Cl [Compound 1.04] | 45 to 59 | 0 to 29 | 0 to 29 | 60 to 74 | 60 to 74 | 60 to 74 | 30 to 44 | 45 to 59 | 45 to 59 | 45 to 59 | 60 to 74 | 60 to 74 | 95 to 100 | 95 to 100 | 95 to 100 | 45 to 59 | 45 to 59 | 85 to 94 | 0 to 29 | 0 to 29 | pest or weed control at 140 g/ha [2, 9]: 0 to 29%; pest or weed control at 35 g/ha [2, 10]: 0 to 29%; pest or weed control at 140 g/ha [2, 10]: 85 to 94%; pest or weed control at 35 g/ha [2, 11]: 0 to 29%; pest or weed control at 70 g/ha [2, 11]: 0 to 29%; pest or weed control at 140 g/ha [2, 11]: 0 to 29%; pest or weed control at 35 g/ha [2, 12]: 0 to 29%; pest or weed control at 70 g/ha [2, 12]: 0 to 29%; pest or weed control at 140 g/ha [2, 12]: 0 to 29%; pest or weed control at 35 g/ha [2, 13]: 0 to 29%; pest or weed control at 70 g/ha [2, 13]: 0 to 29%; pest or weed control at 140 g/ha [2, 13]: 0 to 29%; pest or weed control at 35 g/ha [2, 14]: 0 to 29%; pest or weed control at 70 g/ha [2, 14]: 0 to 29%; pest or weed control at 140 g/ha [2, 14]: 0 to 29%; melting point: 180 to 182 °C
